Measurements from article PMC4627230, “Identification of TAX2 peptide as a new unpredicted anti-cancer agent” (Oncotarget, 2015).

Legend:
VEGFR2 = assay: VEGF-induced VEGFR2 phosphorylation; assay type: cell-based, human; conditions: HUVECs, 100 μM for 12 h, then 30 ng/mL VEGF 5 min; n = 3
TSP-1 = assay: Surface plasmon resonance; assay type: binding; conditions: data not shown
[1] = system: lung metastasis of invasive B16F10 melanoma cells; assay: Experimental lung metastasis; assay type: in vivo; conditions: data not shown
[2] = system: cGMP production by endothelial cells (HUVECs); assay: Intracellular cGMP after NO stimulation; assay type: cell-based, human; conditions: 100 μM for 15 min, then 10 μM DEA-NONOate 10 min, 1 mM IBMX, n = 3 in triplicate, p < 0.05
Protocol: HUVECs (1 × 10^4 per well) were grown over 24 h in 96-well plates containing EGM-2 full growth medium and then serum-starved in EBM-2 containing 0.1% (v/v) BSA over additional 24 h. Cells were then pre-treated during 15 min with 100 μM TAX2 in EBM-2 without additives plus 0.1% (v/v) BSA before treatment with NO donor in presence of 1 mM IBMX as a phosphodiesterases inhibitor. After 10 min, intracellular cGMP levels were determined according to the manufacturer's instructions using an enzyme immunoassay kit (Amersham Biosciences).
Supplementary Figure S2: TAX2 inhibits intracellular cGMP production by endothelial cells under NO stimulation. HUVECs (1 × 10^4 per well) were seeded in 96-well plates, maintained in EGM-2 growth medium for 24 h, and then serum-starved for an additional 24 h in EBM-2 containing 0.1% (v/v) BSA. Endothelial cells were then pre-treated with 100 μM TAX2 for 15 min before addition of 10 μM DEA-NONOate. After 10 min, intracellular cGMP was quantified as described in Material & Methods. Results are expressed as percent compared to control (n = 3, each performed in triplicate; t test; * p < 0.05).
(also on this page, place not known: www.impactjournals.com/oncotarget/ Oncotarget, Materials 2015 Supplementary *p) […]

TSP-1:CD47 = assay: Co-immunoprecipitation TSP-1:CD47 in HUVECs; assay type: cell-based, human; conditions: 100 μM vs scrambled peptide 100 μM, n = 3
Protocol: Figure 2 TAX2 peptide impairs endothelial cell migration and inhibits angiogenesis in vitro and ex vivo A. HUVECs were treated with TAX2 (100 μM) or scrambled peptide (Ctrl, 100 μM). CD47 was immunoprecipitated from total protein lysates using anti-CD47 (clone B6H12) and non-specific IgGs were used as a negative control. Immunocomplexes were then submitted to SDS-PAGE and immunoblotted (IB) using specific TSP-1 and CD47 antibodies. Histogram represents the quantification of co-immunoprecipitated TSP-1 relative to immunoprecipitated CD47. Results are expressed as percentage compared to control (n = 3 separate experiments, t test). B. HUVECs (1 × 10^5 per well) were grown at confluence and then cell proliferation was inhibited by incubating with 10 μg/mL mitomycin C for 2 h. […] Graph represents the quantification of the wounded area. […] Hoechst-stained migrating cells attached on outside surface of the top chamber were photographed (20× objective) and counted. Results are expressed as percentage of migrated cells as compared to control. […] After 8 h incubation, HUVEC tube-like formation was observed on an inverted microscope (40×) and quantification of network total length was done using ImageJ software. […] Data are expressed as the mean ± SE from at least 3 independent experiments, each performed in triplicate. […] The transcriptional level of TSP-1 was assessed by RT-PCR and normalized to β-actin. […]

[3] = system: immobilized TSP-1 (thrombospondin from human platelets); assay: ELISA competition by unlabeled TAX2; assay type: binding; conditions: biotinylated TAX2 10 μg/mL; unlabeled competitor 0.001 to 5 mg/mL
Protocol: Microtiter plates (Nunc, ThermoFisher Scientific, Courtaboeuf, France) were coated overnight at 4°C with 0.5 μg TSP-1 in sodium carbonate-bicarbonate (BupH) buffer (Thermo Fisher Scientific). Plates were washed with PBS 0.1% BSA (Sigma-Aldrich) and non-specific sites were saturated during 30 min using 1% (w/v) BSA in BupH buffer. Biotin-labeled peptide (10 μg/mL, determined after dose-response assay from 0.01 to 100 μg/mL) was added in buffer containing 0.5% (w/v) BSA and incubated for 3 h at room temperature. Non-labeled peptide (0.001 to 5 mg/mL) was used as selective competitor. Plates were washed with PBS containing 0.1% (w/v) BSA and treated for 30 min with mouse anti-biotin antibody. Bound antibody was quantified using the mouse IgG Elite Vectastain ABC kit (Vector Laboratories) followed by incubation with 1-Step Turbo TMB substrate as a chromogen (ThermoFisher Scientific). The reaction was stopped with 0.5 M H2SO4 and absorbance was read at 450 nm.

CEVSQLLKGDAC (disulfide) [TAX2, CD47-derived cyclic disulfide dodecapeptide …]
VEGF-induced VEGFR2 phosphorylation (VEGFR2): partially reverses VEGF-induced VEGFR2 phosphorylation | binding to TSP-1 by surface plasmon resonance (TSP-1): confirmed | lung metastasis formation [1]: did not increase metastasis formation | decrease of cGMP production after NO stimulation [2]: around 25% | TSP-1 binding to CD47 (co-immunoprecipitation) (TSP-1:CD47): specifically prevents TSP-1 binding to CD47 | competition with biotinylated TAX2 for TSP-1 binding [3]: Competitive binding occurred in a dose-dependent fashion
